PubChem BioAssay (NCI)
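Five concentrations, 48 hours, 96-well plates. TGI marks complete inhibition of growth.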

What was measured:
Assay in all cases: NCI tumour cell line growth inhibition, 48 h
UO-31 renal = test system: UO-31 renal
ACHN renal = test system: ACHN renal
MOLT-4 leukemia = test system: MOLT-4 leukemia
RXF 393 renal = test system: RXF 393 renal
SK-OV-3 ovarian = test system: SK-OV-3 ovarian
NCI-H522 lung = test system: NCI-H522 lung
SK-MEL-2 melanoma = test system: SK-MEL-2 melanoma
HOP-92 NSCLC = test system: HOP-92 NSCLC
SF-539 CNS = test system: SF-539 CNS
NCI-H460 lung = test system: NCI-H460 lung
HL-60(TB) leukemia = test system: HL-60(TB) leukemia
MDA-MB-435 = test system: MDA-MB-435
SW-620 colon = test system: SW-620 colon
IGROV1 ovarian = test system: IGROV1 ovarian
HCC-2998 colon = test system: HCC-2998 colon
UACC-257 melanoma = test system: UACC-257 melanoma
786-0 renal = test system: 786-0 renal
SF-268 CNS = test system: SF-268 CNS
OVCAR-4 ovarian = test system: OVCAR-4 ovarian
A549 NSCLC = test system: A549 NSCLC
TK-10 renal = test system: TK-10 renal
NCI/ADR-RES ovarian = test system: NCI/ADR-RES ovarian
SK-MEL-28 melanoma = test system: SK-MEL-28 melanoma
NCI-H23 lung = test system: NCI-H23 lung
CCRF-CEM leukemia = test system: CCRF-CEM leukemia
KM12 colon = test system: KM12 colon
M14 melanoma = test system: M14 melanoma
HCT-15 colon = test system: HCT-15 colon
OVCAR-8 ovarian = test system: OVCAR-8 ovarian
MCF7 breast = test system: MCF7 breast
MALME-3M melanoma = test system: MALME-3M melanoma
SNB-75 CNS = test system: SNB-75 CNS
MDA-N = test system: MDA-N
LOX IMVI melanoma = test system: LOX IMVI melanoma
HS 578T breast = test system: HS 578T breast
SF-295 CNS = test system: SF-295 CNS
U251 CNS = test system: U251 CNS
K-562 leukemia = test system: K-562 leukemia
T-47D breast = test system: T-47D breast
HOP-62 NSCLC = test system: HOP-62 NSCLC
NCI-H226 lung = test system: NCI-H226 lung
SK-MEL-5 melanoma = test system: SK-MEL-5 melanoma
PC-3 prostate = test system: PC-3 prostate
COLO 205 colon = test system: COLO 205 colon
HT29 colon = test system: HT29 colon
SN12C renal = test system: SN12C renal
UACC-62 melanoma = test system: UACC-62 melanoma
OVCAR-5 ovarian = test system: OVCAR-5 ovarian
DU-145 prostate = test system: DU-145 prostate
OVCAR-3 ovarian = test system: OVCAR-3 ovarian
MDA-MB-231 breast = test system: MDA-MB-231 breast
HCT-116 colon = test system: HCT-116 colon
SNB-19 CNS = test system: SNB-19 CNS
RPMI-8226 leukemia = test system: RPMI-8226 leukemia
A498 renal = test system: A498 renal
CAKI-1 renal = test system: CAKI-1 renal
EKVX NSCLC = test system: EKVX NSCLC
SR leukemia = test system: SR leukemia

C=CC1(c2ccc3ccccc3c2)OCC(CC)(CC)CO1
TGI (UO-31 renal): 86.1 µM
TGI (ACHN renal): 38.8 µM
TGI (MOLT-4 leukemia): 38.8 µM
TGI (RXF 393 renal): 36.2 µM
TGI (SK-OV-3 ovarian): > 100 µM
TGI (NCI-H522 lung): 50.9 µM
TGI (SK-MEL-2 melanoma): 34.7 µM
TGI (HOP-92 NSCLC): 52 µM
TGI (SF-539 CNS): 33.5 µM
TGI (NCI-H460 lung): 46.8 µM
TGI (HL-60(TB) leukemia): 41.4 µM
TGI (MDA-MB-435): 65.7 µM
TGI (SW-620 colon): 43.4 µM
TGI (IGROV1 ovarian): 52.3 µM
TGI (HCC-2998 colon): 37.3 µM
TGI (UACC-257 melanoma): 64.2 µM
TGI (786-0 renal): 50.9 µM
TGI (SF-268 CNS): 95.6 µM
TGI (OVCAR-4 ovarian): > 100 µM
TGI (A549 NSCLC): > 100 µM
TGI (TK-10 renal): 89.5 µM
TGI (NCI/ADR-RES ovarian): 66.4 µM
TGI (SK-MEL-28 melanoma): > 100 µM
TGI (NCI-H23 lung): 49.3 µM
TGI (CCRF-CEM leukemia): 40.1 µM
TGI (KM12 colon): 40.6 µM
TGI (M14 melanoma): 60.6 µM
TGI (HCT-15 colon): 35.1 µM
TGI (OVCAR-8 ovarian): > 100 µM
TGI (MCF7 breast): 56.2 µM
TGI (MALME-3M melanoma): 49.1 µM
TGI (SNB-75 CNS): 96.1 µM
TGI (MDA-N): 65.8 µM
TGI (LOX IMVI melanoma): 34.5 µM
TGI (HS 578T breast): 41.6 µM
TGI (SF-295 CNS): 65.2 µM
TGI (U251 CNS): 42 µM
TGI (K-562 leukemia): 48.1 µM
TGI (T-47D breast): 52.2 µM
TGI (HOP-62 NSCLC): 84.4 µM
TGI (NCI-H226 lung): 33.4 µM
TGI (SK-MEL-5 melanoma): 34 µM
TGI (PC-3 prostate): 65.5 µM
TGI (COLO 205 colon): 31.8 µM
TGI (HT29 colon): 57.5 µM
TGI (SN12C renal): 44.5 µM
TGI (UACC-62 melanoma): 46 µM
TGI (OVCAR-5 ovarian): 38.5 µM
TGI (DU-145 prostate): > 100 µM
TGI (OVCAR-3 ovarian): 51.5 µM
TGI (MDA-MB-231 breast): 33.9 µM
TGI (HCT-116 colon): 43.2 µM
TGI (SNB-19 CNS): 36.3 µM
TGI (RPMI-8226 leukemia): 80.4 µM

COc1ccc(N2C(=O)C3c4[nH]c5ccccc5c4C4CCCCCCCC4C3C2=O)cc1 (stereo not drawn)
TGI (UO-31 renal): > 10 µM
TGI (ACHN renal): > 10 µM
TGI (MOLT-4 leukemia): > 10 µM
TGI (RXF 393 renal): > 10 µM
TGI (SK-OV-3 ovarian): > 10 µM
TGI (NCI-H522 lung): > 10 µM
TGI (SK-MEL-2 melanoma): > 10 µM
TGI (SF-539 CNS): > 10 µM
TGI (NCI-H460 lung): > 10 µM
TGI (HL-60(TB) leukemia): > 10 µM
TGI (MDA-MB-435): > 10 µM
TGI (A498 renal): > 10 µM
TGI (SW-620 colon): > 10 µM
TGI (IGROV1 ovarian): > 10 µM
TGI (HCC-2998 colon): > 10 µM
TGI (SF-268 CNS): > 10 µM
TGI (OVCAR-4 ovarian): > 10 µM
TGI (A549 NSCLC): > 10 µM
TGI (TK-10 renal): > 10 µM
TGI (NCI/ADR-RES ovarian): > 10 µM
TGI (SK-MEL-28 melanoma): > 10 µM
TGI (NCI-H23 lung): > 10 µM
TGI (CCRF-CEM leukemia): 8.35 µM
TGI (KM12 colon): > 10 µM
TGI (M14 melanoma): > 10 µM
TGI (HCT-15 colon): > 10 µM
TGI (OVCAR-8 ovarian): > 10 µM
TGI (MCF7 breast): > 10 µM
TGI (MALME-3M melanoma): > 10 µM
TGI (SNB-75 CNS): > 10 µM
TGI (MDA-N): > 10 µM
TGI (HS 578T breast): > 10 µM
TGI (SF-295 CNS): > 10 µM
TGI (U251 CNS): > 10 µM
TGI (K-562 leukemia): > 10 µM
TGI (T-47D breast): > 10 µM
TGI (CAKI-1 renal): > 10 µM
TGI (HOP-62 NSCLC): > 10 µM
TGI (EKVX NSCLC): > 10 µM
TGI (NCI-H226 lung): > 10 µM
TGI (SK-MEL-5 melanoma): > 10 µM
TGI (PC-3 prostate): > 10 µM
TGI (COLO 205 colon): > 10 µM
TGI (HT29 colon): > 10 µM
TGI (SN12C renal): > 10 µM
TGI (UACC-62 melanoma): > 10 µM
TGI (SR leukemia): > 10 µM
TGI (OVCAR-5 ovarian): > 10 µM
TGI (DU-145 prostate): > 10 µM
TGI (OVCAR-3 ovarian): > 10 µM
TGI (MDA-MB-231 breast): > 10 µM
TGI (HCT-116 colon): > 10 µM
TGI (SNB-19 CNS): > 10 µM
TGI (RPMI-8226 leukemia): > 10 µM
